In US10064839B2, “Methods of treating liver diseases” (Zafgen, Inc., priority 2012, dated 2018):

Legend:
recombinant human MetAP2 = biological target: T1, recombinant human MetAP2 (Homo sapiens, UniProt P50579); assay: Recombinant human MetAP2 inhibition assay (MAS substrate, Amplex red fluorescence); type: biochemical; conditions: human recombinant MetAP2 manganese enzyme, 0.75 mM MAS substrate, 30 minutes at 25° C., pH 7.5; read-out: Activity (MetAP2 IC50 class)
T1 construct: made in house; host or cells: Sf9 insect cells
T1 sequence (P50579 whole entry): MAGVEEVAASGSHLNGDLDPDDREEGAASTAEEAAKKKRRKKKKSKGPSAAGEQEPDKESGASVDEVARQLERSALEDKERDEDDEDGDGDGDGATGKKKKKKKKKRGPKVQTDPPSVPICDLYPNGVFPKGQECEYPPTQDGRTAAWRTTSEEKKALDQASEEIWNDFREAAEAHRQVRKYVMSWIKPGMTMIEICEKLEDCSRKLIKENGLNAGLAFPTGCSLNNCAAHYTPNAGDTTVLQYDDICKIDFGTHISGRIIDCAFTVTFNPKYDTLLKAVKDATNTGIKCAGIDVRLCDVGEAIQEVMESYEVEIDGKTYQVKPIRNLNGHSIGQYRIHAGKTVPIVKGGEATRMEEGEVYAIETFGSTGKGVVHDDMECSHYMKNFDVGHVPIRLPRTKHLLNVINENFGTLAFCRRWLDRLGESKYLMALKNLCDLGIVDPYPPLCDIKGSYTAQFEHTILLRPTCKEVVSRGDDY
Procedure: Compounds are tested for their capacity to inhibit recombinant human MetAP2 activity using the following assay.
Human recombinant MetAP2 expressed in Sf9 cells followed by affinity purification and EDTA treatment to remove endogenous active site cation was dialysed against MnCl2 to produce the manganese enzyme used in the assay. The assay was carried out for 30 minutes at 25° C. in 50 mM HEPES buffer containing 100 mM NaCl, pH 7.5 the presence of 0.75 mM Methionine-Alanine-Serine (MAS) substrate and 50 µg/ml amino acid oxidase using a dilution of purified MetAP2 giving >3-fold signal: noise. Cleavage of the substrate by MetAP2 and oxidation of free methionine by amino acid oxidase was detected and quantified using fluorescence generated by Amplex red (10-acetyl-3,7-dihydroxyphenoxazine) in combination with horseradish peroxidase which detects H2O2 released during the oxidation step. The fluorescent signal was detected using a multiwell fluorimeter. Compounds were diluted in DMSO prior to addition to assay buffer, the final DMSO concentration in the assay being 1%.
IC50 values are calculated using the XLfit software package (version 2.0.5).

[1] = test system: diet induced obese mice (C57BL6); assay: Diet induced obese mice, 10 days oral 30 mg/kg: body weight and serum cholesterol; type: in vivo, mouse; conditions: DIO C57BL6 mice, 30 mg/kg oral gavage; for Cholesterol Change: serum
Procedure: Compounds were tested in diet induced obese mice (C57BL6) that were on a 65% high fat diet for 8-10 weeks. Mice were dosed for 10 days by oral gavage with 30 mg/kg of the compounds listed. Their body weights were recorded along with serum chemistries including cholesterol.

NASH mice = assay: Non-alcoholic steatohepatitis (STZ + high fat diet) mouse model; type: in vivo
Procedure: NASH was induced in 48 male mice by a single subcutaneous injection of 200 μg streptozotocin (STZ; Sigma-Aldrich) in the back of mice 2 days after birth, and by feeding with high fat diet (HFD; 57 kcal % fat) after 4 weeks of age. At 5 weeks of age, the NASH mice were randomized into 6 groups of 8 mice based on body weight. Eight male littermates, fed with normal diet (without STZ treatment, were used for the Normal group. Vehicle, Compound A and Telmisartan were administered by the oral route in a volume of 10 mL/kg body weight.
Compound A was administered twice daily at doses of 1, 3 or 10 mg/kg body weight (i.e., 2, 6 or 20 mg/kg/day) and once daily at dose of 30 mg/kg body weight. Telmisartan was administered once daily at a dose of 10 mg/kg body weight.
C57BL/6 mice (15-day pregnant female) were obtained from Charles River Laboratories Japan (Japan). The animals were maintained in a SPF facility under controlled conditions of temperature (23±2° C.), humidity (45±10%), lighting (12-hour artificial light and dark cycles; light from 8:00 to 20:00) and air exchange. A high pressure (20±4 Pa) was maintained in the experimental room to prevent contamination of the facility.
Mice were fasted for 4 hours before blood was collected at the time of sacrifice. HbA1c levels were quantified in whole blood samples by DCA Vantage Analyzer (Siemens Healthcare Diagnostics, USA). For plasma biochemistry, blood was collected in polypropylene tubes with anticoagulant (Novo-Heparin;) and centrifuged at 1,000×g for 15 minutes at 4° C. The supernatant was collected and stored at −80° C. until use. Plasma levels of glucose, ALT, TG and total cholesterol were measured by FUJI DRI-CHEM 7000 (Fujifilm, Japan). Plasma insulin concentration was quantified by the Ultra Sensitive Mouse Insulin ELISA Kit.
Liver total lipid-extracts were obtained by Folch's method (Folch J. et al., J. Biol. Chem. 1957; 226: 497). Liver samples were homogenized in chloroform-methanol (2:1, v/v) and incubated overnight at room temperature. After washing with chloroform-methanol-water (8:4:3, v/v/v), the extracts were evaporated to dryness, and dissolved in isopropanol. Liver TG levels were measured by Triglyceride E-test (Wako Pure Chemical Industries). Extracts were diluted 2-fold in isopropanol when the TG content exceeded the detection limit.
For HE staining, sections were cut from paraffin blocks of liver tissue prefixed in Bouin's solution and stained with Lillie-Mayer's Hematoxylin (Muto Pure Chemicals, Japan) and eosin solution (Wako Pure Chemical Industries). NAFLD Activity score (NAS) was calculated according to the criteria of Kleiner (Kleiner D E et al., Hepatology, 2005; 41:1313). To visualize collagen deposition, Bouin's fixed liver sections were stained using picro-Sirius red solution (Waldeck, Germany). To visualize macro- and microvesicular fat, cryosections were cut from frozen liver tissues, prefixed in 10% neutral buffered formalin, embedded in Tissue-Tek O.C.T. compound (Sakura Finetek Japan, Japan), and stained with Oil Red O (Sigma-Aldrich). For immunohistochemistry, sections were cut from frozen liver tissues embedded in Tissue-Tek O.C.T. compound and fixed in acetone. Endogenous peroxidase activity was blocked using 0.03% H2O2 for 5 minutes, followed by incubation with Block Ace (Dainippon Sumitomo Pharma, Japan) for 10 minutes. The sections were incubated with a 200-fold dilution of anti-F4/80 antibody (BMA Biomedicals, Switzerland) over night at 4° C. After incubation with secondary antibody (HRP-Goat anti-rat antibody, Invitrogen, USA), enzyme-substrate reactions were performed using 3, 3′-diaminobenzidine/H2O2 solution (Nichirei, Japan). […]

Compound | IC50 (recombinant human MetAP2) [µM] | further results
CCN1CC[C@@H](Cc2cc(F)ccc2S(=O)(=O)Nc2ccc3c(c2C(=O)O)OCC2CC32)C1 (single isomer, unassigned) [listing 1 of 2 here] | < 0.05 | –
O=C(O)c1c(NS(=O)(=O)c2ccc(F)cc2/C=C\CN2CC(O)C2)ccc2c1OC[C@@H]1C[C@H]21 (racemic) [(1aRS,7bSR)-5-{2[(Z)-3-(3-Hydroxyazetidin-1-yl)prop-1-enyl]-4-fluorobenzene-sulfonylamino}-1,1a,2,7b-tetrahydrocyclopropa[c]chromene-4-carboxylic acid] | < 0.05 | –
CCN1CC[C@@H](NC(=O)Cc2cc(F)ccc2S(=O)(=O)Nc2ccc3c(c2C(=O)O)OC[C@@H]2C[C@H]32)C1 (mixture of isomers) | 0.05 to 0.5 | –
CCN(CC)C/C=C\c1cc(F)ccc1S(=O)(=O)Nc1ccc2c(c1C(=O)O)OCc1occc1-2 | – | Body Weight Change [1]: −7.0%; Cholesterol Change [1]: −35%
(1aRS,7bSR)-5-{2[(Z)-3-((S)-3-hydroxypyrrolidin-1-yl)aminoprop-1-enyl]-4-fluorobenzenesulfonylamino}-1,1a,2,7b-tetrahydrocyclopropa[c]chromene-4-carboxylic acid | 0.05 to 0.5 | –
CN(C)CCCCNc1ccccc1S(=O)(=O)Nc1ccc2c(c1C(=O)O)OCC1CC21 (single isomer, unassigned) | < 0.05 | –
CCN1CC(CNc2ccccc2S(=O)(=O)Nc2ccc3c(c2C(=O)O)OC[C@@H]2C[C@H]32)C1 (racemic) [(1aRS,7bSR)-5-{2-[(1-Ethylazetidin-3-ylmethyl)amino]benzene-sulfonylamino}-1,1a,2,7b-tetrahydrocyclopropa[c]chromene-4-carboxylic acid] | 0.05 to 0.5 | –
CCN(CC)C/C=C\c1cc(F)ccc1S(=O)(=O)Nc1ccc2c(ncc3occc32)c1C(=O)O | – | Body Weight Change [1]: −16%; Cholesterol Change [1]: No change
(1aRS,7bSR)-5-{2[(Z)-3-((R)-3-Hydroxypyrrolidin-1-yl)aminoprop-1-enyl]-4-fluorobenzene-sulfonylamino}-1,1a,2,7b-tetrahydro-cyclopropa[c]chromene-4-carboxylic acid | 0.05 to 0.5 | –
CCN(CC)C/C=C\c1cc(F)ccc1S(=O)(=O)Nc1ccc2c(c1C(=O)O)OCCc1occc1-2 | – | Body Weight Change [1]: −2.1%; Cholesterol Change [1]: No change
CCNC/C=C\c1cc(F)ccc1S(=O)(=O)Nc1ccc2c(c1C(=O)O)OCC1CC21 (single isomer, unassigned) [listing 1 of 2 here] | < 0.05 | –
CN(C)CCCNc1ccccc1S(=O)(=O)Nc1ccc2c(c1C(=O)O)OCC1CC21 (single isomer, unassigned) | < 0.05 | –
CCN(CC)C/C=C\c1ccccc1S(=O)(=O)Nc1ccc2c(c1C(=O)O)OCC1CC21 (single isomer, unassigned) [listing 1 of 2 here] | < 0.05 | –
CCN1CC[C@@H](Cc2cc(F)ccc2S(=O)(=O)Nc2ccc3c(c2C(=O)O)OCC2CC32)C1 (single isomer, unassigned) [listing 2 of 2 here] | 0.05 to 0.5 | –
CCN(CC)C/C=C\c1cc(F)ccc1S(=O)(=O)Nc1ccc2c(c1C(=O)O)OC[C@@H]1C[C@]21C (racemic) [(1aRS,7bSR)-5-[2-((Z)-3-Diethylaminoprop-1-enyl)-4-fluorobenzenesulfonylamino]-7b-methyl-1,1a,2,7b-tetrahydrocyclopropa[c]chromene-4-carboxylic acid] | < 0.05 | –
O=C(O)c1c(NS(=O)(=O)c2ccc(F)cc2/C=C\CN2CCCC2)ccc2c1OCC1CC21 (single isomer, unassigned) [listing 1 of 2 here] | 0.05 to 0.5 | –
CCN1CCC[C@H]1C(=O)N(C)Cc1cc(F)ccc1S(=O)(=O)Nc1ccc2c(c1C(=O)O)OC[C@@H]1C[C@H]21 (mixture of isomers) | 0.05 to 0.5 | –
O=C(O)c1c(NS(=O)(=O)c2ccc(F)cc2/C=C\CN2CCCC2)ccc2c1OCC1CC21 (single isomer, unassigned) [listing 2 of 2 here] | 0.05 to 0.5 | –
CCN1CC[C@H](N(C)C(=O)Cc2cc(F)ccc2S(=O)(=O)Nc2ccc3c(c2C(=O)O)OC[C@@H]2C[C@H]32)C1 (mixture of isomers) | 0.05 to 0.5 | –
CCN(CC)C/C=C\c1cc(F)ccc1S(=O)(=O)Nc1ccc2c(c1C(=O)O)OC[C@@H]1[C@H]2C1(F)F (racemic) [(1aRS,7bSR)-5-[2-((Z)-3-Diethylaminoprop-1-enyl)-4-fluorobenzene-sulfonylamino]-1,1-difluoro-1,1a,2,7b-tetrahydrocyclopropa[c]chromene-4-carboxylic acid] | < 0.05 | –
CCNC/C=C\c1cc(F)ccc1S(=O)(=O)Nc1ccc2c(c1C(=O)O)OCC1CC21 (single isomer, unassigned) [listing 2 of 2 here] | 0.05 to 0.5 | –
CCCc1nc2c(C)cc(-c3nc4ccccc4n3C)cc2n1Cc1ccc(-c2ccccc2C(=O)O)cc1 [Telmisartan, reference compound] | – | Mean body weight at the day before sacrifice (NASH mice; Telmisartan 10 mg/kg once daily oral, 5 to 9 weeks of age, Vehicle 18.8±1.0 g): 15.6 ± 1.8 g; Fibrosis area (Sirius red-positive area) (NASH mice; Telmisartan 10 mg/kg once daily, Vehicle 1.07±0.18%): 0.42±0.08%; Inflammation area (F4/80-positive area) (NASH mice; Telmisartan 10 mg/kg once daily, Vehicle 3.57±0.88%): 3.84±0.86%; NAFLD Activity score (NAS) (NASH mice; Telmisartan 10 mg/kg once daily, Vehicle 5.4±0.9): 2.3±0.7; Fat deposition area (oil red-positive area) (NASH mice; Telmisartan 10 mg/kg once daily, Vehicle 23.57±6.52%): 17.29±7.66%; Liver TG content (NASH mice; Telmisartan 10 mg/kg once daily, Vehicle 67.3±29.0): 30.7±11.4 mg/g liver
CCN(CC)C/C=C\c1ccccc1S(=O)(=O)Nc1ccc2c(c1C(=O)O)OCC1CC21 (single isomer, unassigned) [listing 2 of 2 here] | 0.05 to 0.5 | –
O=C(O)c1c(NS(=O)(=O)c2ccccc2)ccc2c3c(cnc12)OCC3 | < 0.05 | –
CCN1CC[C@@H](N(C)C(=O)Cc2cc(F)ccc2S(=O)(=O)Nc2ccc3c(c2C(=O)O)OC[C@@H]2C[C@H]32)C1 (mixture of isomers) | 0.05 to 0.5 | –
CCN(CC)CC/C=C\c1cc(F)ccc1S(=O)(=O)Nc1ccc2c(c1C(=O)O)OC[C@@H]1C[C@H]21 (racemic) [(1aRS,7bSR)-5-[2((Z)-4-Diethylaminobut-1-enyl)-4-fluorobenzenesulfonyl-amino]-1,1a,2,7b-tetrahydrocyclopropa[c]chromene-4-carboxylic acid] | < 0.05 | –
CC(C)NC/C=C\c1cc(F)ccc1S(=O)(=O)Nc1ccc2c(c1C(=O)O)OC[C@@H]1C[C@H]21 (racemic) [(1aRS,7bSR)-5-{2[(Z)-3-(propan-2-yl)aminoprop-1-enyl]-4-fluorobenzene-sulfonylamino}-1,1a,2,7b-tetrahydrocyclopropa[c]chromene-4-carboxylic acid] | 0.05 to 0.5 | –
CCN(CC)C/C=C/c1cc(F)ccc1S(=O)(=O)Nc1ccc2c(c1C(=O)O)OC[C@@H]1C[C@]21C (racemic) [(1aRS,7bSR)-5-[2-((E)-3-Diethylaminoprop-1-enyl)-4-fluorobenzenesulfonylamino]-7b-methyl-1,1a,2,7b-tetrahydrocyclopropa[c]chromene-4-carboxylic acid] | 0.05 to 0.5 | –
